Columns and labels:
TAP [1] = molecular target: T1, TAP (Bacillus subtilis, UniProt P13485); experiment: TAP enzyme assay (acid precipitation of radioactive lipoteichoic acid); format: biochemical, B. subtilis; settings: lipoteichoic acid from either B. subtilis, S. aureus, or E. faecalis
T1 construct: corresponds to a 2163 bp open reading frame beginning with ATG at bp 100 and ending with TAA at bp 2263; made in house; host or cells: E. coli DH10B / pBSRODC1 (pTrc99A vector); membrane preparation, 2M NaCl extract, High Q fraction
T1 sequence (P13485 26-746 A616V): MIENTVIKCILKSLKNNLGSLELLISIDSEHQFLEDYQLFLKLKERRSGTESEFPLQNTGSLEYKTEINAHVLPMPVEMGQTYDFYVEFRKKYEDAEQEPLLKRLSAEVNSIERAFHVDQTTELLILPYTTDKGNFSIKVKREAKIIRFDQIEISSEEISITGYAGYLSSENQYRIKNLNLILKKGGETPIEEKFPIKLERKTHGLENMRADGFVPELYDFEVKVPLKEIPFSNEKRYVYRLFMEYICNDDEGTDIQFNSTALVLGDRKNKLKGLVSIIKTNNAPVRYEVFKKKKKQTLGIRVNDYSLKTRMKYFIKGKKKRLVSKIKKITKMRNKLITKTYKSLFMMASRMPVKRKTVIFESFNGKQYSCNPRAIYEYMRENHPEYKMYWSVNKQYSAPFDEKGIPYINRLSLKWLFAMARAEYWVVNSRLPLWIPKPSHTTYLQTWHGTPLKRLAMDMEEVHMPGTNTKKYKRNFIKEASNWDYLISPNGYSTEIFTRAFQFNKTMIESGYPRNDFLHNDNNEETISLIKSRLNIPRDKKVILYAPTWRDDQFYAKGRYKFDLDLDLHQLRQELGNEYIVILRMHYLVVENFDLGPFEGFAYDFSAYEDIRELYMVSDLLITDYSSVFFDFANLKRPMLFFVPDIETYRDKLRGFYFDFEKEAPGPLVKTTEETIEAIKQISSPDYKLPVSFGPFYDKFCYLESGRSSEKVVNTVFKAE
Procedure: (§1) The enzymatic activity of TAP was assayed using CDP[^3H]glycerol as the glycerolphosphate donor and B. subtilis lipoteichoic acid as the acceptor. If active, the recombinant TAP enzyme should lengthen lipoteichoic acid with radioactive glycerolphosphate monomers, producing acid precipitable radioactivity. […] Extraction of TAP from the E. coli membrane with 2 M NaCl produced an active TAP preparation that could be separated from the cell membrane by ultracentrifugation.
(§2) The method of Burger and Glaser was generally followed. Burger M M, Glaser L. “The synthesis of teichoic acids” J. Biol. Chem. (1964) vol. 239, pp. 3168-3177, incorporated by reference. A typical assay contained 1-100 μl of enzyme, 10 μl of lipoteichoic acid (1 mg/ml B. subtilis lipoteichoic acid [Sigma] in water), 25 μl of CDP[^3H]glycerol (10 mM CDPglycerol Specific Activity 8.8 μCi/μMole), and enough Buffer A to bring the total volume to 250 μl. The reaction was incubated at 37° C. for one hour, mixed with 80 μl of 3N perchloric acid, and placed on ice for 5 min. The acid treated sample was spotted on a GF/C filter and washed with 4×5 ml of 0.15 N perchloric acid before liquid scintillation counting. Control reactions lacking either lipoteichoic acid or CDP[^3H]glycerol were included as negative controls.
(§3) The method of Burger and Glaser was generally followed. […]

TAP [2] = molecular target: T2, TAP (Bacillus subtilis, UniProt P13485, A616V); experiment: as above; format: biochemical, B. subtilis; settings: alanine ester removed in 0.1M Tris-HCl pH 8.0, 24 hr, 37° C.
T2 construct: corresponds to a 2163 bp open reading frame beginning with ATG at bp 100 and ending with TAA at bp 2263; made in house; host or cells: E. coli DH10B / pBSRODC1 (pTrc99A vector); membrane preparation, 2M NaCl extract, High Q fraction
T2 sequence (P13485 26-746 A616V): as above
Procedure: as §1, §2, §3

[3] = Storage stability of the TAP enzyme; format: physicochemical; settings: stored in ice

Molecule | acceptor of CDP[3H]glycerol (substrate for TAP) (TAP [1]) | effect of alanine removal from lipoteichoic acid on activity of the recombinant TAP enzyme (TAP [2]) | stability of the enzyme on storage [3]
lipoteichoic acid | could serve as an acceptor | improved activity | 
TAP: recombinant B. subtilis rodC (tagF) gene product overexpressed in E. coli DH10B/pBSRODC1, SEQ ID NO 2 with alanine to valine change (protein) MSLVVDTNKRKQKGKSFYTEEQKKVMIENTVIKCILKSLKNNLGSLELLISIDSEHQFLEDYQLFLKLKERRSGTESEFPLQNTGSLEYKTEINAHVLPMPVEMGQTYDFYVEFRKKYEDAEQEPLLKRLSAEVNSIERAFHVDQTTELLILPYTTDKGNFSIKVKREAKIIRFDQIEISSEEISITGYAGYLSSENQYRIKNLNLILKKGGETPIEEKFPIKLERKTHGLENMRADGFVPELYDFEVKVPLKEIPFSNEKRYVYRLFMEYICNDDEGTDIQFNSTALVLGDRKNKLKGLVSIIKTNNAPVRYEVFKKKKKQTLGIRVNDYSLKTRMKYFIKGKKKRLVSKIKKITKMRNKLITKTYKSLFMMASRMPVKRKTVIFESFNGKQYSCNPRAIYEYMRENHPEYKMYWSVNKQYSAPFDEKGIPYINRLSLKWLFAMARAEYWVVNSRLPLWIPKPSHTTYLQTWHGTPLKRLAMDMEEVHMPGTNTKKYKRNFIKEASNWDYLISPNGYSTEIFTRAFQFNKTMIESGYPRNDFLHNDNNEETISLIKSRLNIPRDKKVILYAPTWRDDQFYAKGRYKFDLDLDLHQLRQELGNEYIVILRMHYLVAENFDLGPFEGFAYDFSAYEDIRELYMVSDLLITDYSSVFFDFANLKRPMLFFVPDIETYRDKLRGFYFDFEKEAPGPLVKTTEETIEAIKQISSPDYKLPVSFGPFYDKFCYLESGRSSEKVVNTVFKAE |  |  | stable for two weeks

Source: patent US6428971B1, “Teichoic acid enzymes and assays” (priority 1996, dated 2002)
